In the METLIN SMRT retention time set (Domingo-Almenara et al. 2019) one finds RP-LC retention time data, which are given here for 79 compounds.

Structures are written as SMILES.

The data set can be described thus: gradient 5% acetonitrile 3 min, to 50% in 2 min, to 85% in 15 min, held 3 min, 100 µL/min. The conditions noted are these: column: Zorbax Extend-C18 2.1 x 50 mm; eluents: water / acetonitrile, 0.1% formic acid. An outline of the steps: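 Data were gathered over 3 months by HPLC coupled to a quadrupole time-of-flight mass spectrometer, operated in positive and negative ionization mode. Mixtures of ~100 pure standards ran on a Zorbax Extend-C18 column (2.1 × 50 mm, 1.8 μm) at 100 μL/min, with water and acetonitrile each containing 0.1% formic acid and dead and dwell volumes of 40 μL and 900 μL. Retention time was read from adduct peaks picked by computer and checked manually.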
`CN1C(=O)C2(c3ccccc31)C(C(=O)Nc1ccc(Br)cc1F)CC1CCCN12` (centres undefined): the RP-LC retention time is 674 s.
In turn, `CCN1C(=O)CC[C@]2(CN(C)C(=O)Cc3cccc(F)c3)CCC[C@@H]12` had an RP-LC retention time of 752 s.
The value for `CCc1ccccc1N1C(=O)CC(N2CCC(C(N)=O)CC2)C1=O` (centres undefined) was 591 s.
In the case of `CCC(=O)NCc1nc2c(n1C)CN(S(=O)(=O)c1ccc(F)cc1F)CC2`, the RP-LC retention time amounted to 600 s.
`O=C(O)c1nnn(-c2ccccc2F)c1-c1ccccn1` came in with an RP-LC retention time of 657 s.
The value for `CCCNc1cc(N2CCC(CCC(=O)NCc3ccccc3C)CC2)ncn1` was 702 s.
As for `O=C(Cn1cccc1-c1nnc(-c2ccccc2)o1)N1CCN(c2cccc(Cl)c2)CC1`, the RP-LC retention time was 1120 s.
`CC1(C)CN(C(=O)C2CC2)c2ccc(S(=O)(=O)N3CCN(c4ccccn4)CC3)cc21` had an RP-LC retention time of 692 s.
The figure for `COc1ccc(C)cc1NC(=O)N1CCCC(C)(C(=O)NCc2ccc(C)cc2)C1` (centres undefined) is 968 s; for `COc1ccc(C(=O)N2CCN(c3cc(C)n4cnnc4n3)CC2)c(OC)c1` it is 999 s.
Compound `COc1cc(OC)cc(C(=O)N2CCCC2c2nc(-c3cccc(C(F)(F)F)c3)no2)c1` (centres undefined) returned an RP-LC retention time of 1120 s.
The compound `CC(C)CCNC(=O)C1(C)Cn2nc(C(=O)NCc3ccccc3F)cc2C(=O)N1C` (centres undefined) registered an RP-LC retention time of 763 s.
`CC1CCN(S(=O)(=O)c2ccc3nc(N4CCN(C5CCCCC5)CC4)ccc3c2)CC1` showed an RP-LC retention time of 776 s.
The value for `Fc1ccc(-c2nc3ncccn3c2NCc2ccc(Cl)cc2)cc1` was 782 s; that for `Cc1ccc(NS(=O)(=O)c2ccc(-c3nnc(C4CCC4)o3)o2)cc1` was 926 s.
The compound `COc1ccc(-c2nc(-c3nnn(-c4ccccc4)c3C)no2)c(OC)c1` showed an RP-LC retention time of 1000 s.
The compound `COCc1noc(C2CCCCCN2C(=O)NC(C)C)n1` (centres undefined) had an RP-LC retention time of 730 s.
Consider `O=C(NCC(=O)N1CCCc2ccccc21)c1ccoc1`, for which the RP-LC retention time is 708 s.
The figure for `CSc1ccc(NC(=O)CN2C(=O)C3CCCN3C(=O)c3cc(C)ccc32)cc1` (centres undefined) is 785 s; for `O=C(CN1CCN(C(=O)Nc2ccc(Br)cc2)CC1=O)NCCN1CCCCC1` it is 602 s.
The figure for `c1ccc(-c2nc(-c3ccncc3)no2)c(OC2CCN(CC3CC3)C2)c1` (centres undefined) is 642 s.
As for `O=C(CCn1c(=O)oc2ccccc21)NCc1ccc2c(c1)OCO2`, the RP-LC retention time was 941 s.
In turn, `CCN1C(=O)c2c(C(=O)NCc3ccc(F)cc3)ncn2CC1(C)C(=O)NC1CCCC1` (centres undefined) returned an RP-LC retention time of 764 s.
Take `Cc1ccc(-c2nc3ncccn3c2Nc2cc(C)cc(C)c2)cc1`: the RP-LC retention time was found to be 866 s.
Take `COc1ccc(CN2CCc3nc(N4CCN(c5ncccn5)CC4)ncc3C2)cc1OC`: the RP-LC retention time was 626 s.
Take `COc1ccc2c(c1)C1(CCN(C(=O)Cc3ccccc3Cl)C1)C(=O)N2` (centres undefined): the RP-LC retention time turned out to be 773 s.
As for `Cc1c(S(=O)(=O)NCCC2CCN(C(=O)c3ccc(F)cc3)CC2)cnn1C(F)F`, the RP-LC retention time was 813 s.
Compound `CN1C(=O)CO[C@@H](C(=O)Nc2cccc(F)c2)[C@@H]1c1ccccc1` yielded an RP-LC retention time of 782 s.
For `COc1ccc(N2CCN(c3cc(SCC(=O)Nc4ccccc4OC)ncn3)CC2)cc1`, the RP-LC retention time is 1040 s.
As to `COC(=O)C1=CN(c2ccc(N(C)C)cc2)c2cc(F)ccc2S1(=O)=O`, the RP-LC retention time came to 926 s.
In turn, `O=C(N[C@@H]1CN(c2ncccn2)C[C@H]1CO)c1ccc2ccccc2n1` yielded an RP-LC retention time of 654 s.
Compound `Cc1ccc2[nH]cc(CCNC(=O)c3ccc4nc(C(C)C)oc4c3)c2c1` registered an RP-LC retention time of 925 s.
With `CCc1ccc(N2CC(c3nc(-c4ccc(OC)cc4)no3)CC2=O)cc1` (centres undefined), the RP-LC retention time stood at 988 s.
`O=C(Nc1cnn(-c2ncncc2N2CCCCC2)c1)c1ccc2c(c1)OCO2` displayed an RP-LC retention time of 702 s.
In turn, `CCCn1ccc2sc(C)c(C(=O)N3CCN(C4CCCCC4)CC3)c2c1=O` displayed an RP-LC retention time of 606 s.
The value for `CC1CCCN(S(=O)(=O)c2ccc(C(=O)Nc3nc4c(s3)CCc3ccccc3-4)cc2)C1` (centres undefined) was 1260 s.
`O=C(CN1CCN(Cc2cccc(Cl)c2)C1=O)NCC1CCCCC1` came in with an RP-LC retention time of 920 s.
Compound `Cc1ccc(-c2nc(NCc3cccnc3)ncc2C(=O)O)cc1` displayed an RP-LC retention time of 587 s.
`COC(=O)c1cc(OCC(=O)Nc2ccc(F)cc2F)c2cc(OC)ccc2n1` displayed an RP-LC retention time of 822 s.
`COc1ccc(OC)c(NC(=O)N2CCC(CN3CCC(C)CC3)CC2)c1` registered an RP-LC retention time of 626 s.
Consider `Cc1nnc(-c2ccc3ccn(CC(=O)NCc4ccc(F)cc4)c3c2)o1`, for which the RP-LC retention time was 760 s.
The compound `CCOc1ccc(OCC)c(NC(=O)CN2C(=O)C(C)(C)c3ccccc32)c1` gave an RP-LC retention time of 1090 s.
As to `CC(C(=O)N1CCN(c2ccccn2)CC1)n1c(=O)c(C(F)(F)F)nc2ccccc21` (centres undefined), the RP-LC retention time was 696 s.
For the compound `COc1ccc(-c2cc3nn(CC(=O)NCc4ccc(F)cc4)c(=O)n3c(C)n2)cc1`, the RP-LC retention time is 880 s.
As to `CCc1noc([C@@H]2CC(F)(F)CN2C(=O)c2ocnc2C)n1`, the RP-LC retention time amounted to 720 s.
For the compound `O=C(Nc1ccccc1F)C1CCc2nc(N3CCOCC3)ncc2C1` (centres undefined), the RP-LC retention time came out at 778 s.
As to `NC(=O)Cc1csc(NC(=O)c2csc(Nc3ccc(OC(F)F)cc3)n2)n1`, the RP-LC retention time was 688 s.
For `Cc1ccc(-c2ncc(C(=O)N(C)C)c(-c3ccncc3)n2)cc1`, the RP-LC retention time is 754 s.
For the compound `COCCNS(=O)(=O)c1cc(-c2nc(C)cs2)n(CC(=O)N2CCCCC2)c1`, the RP-LC retention time was 755 s.
The compound `Cc1ccc(S(=O)(=O)N(C)c2ccc(C(=O)N3C(C)CCCC3C)cc2)cc1` (centres undefined) had an RP-LC retention time of 961 s.
With `CC1Oc2ccc(-c3csc(NC(=O)CCC4CCCCC4)n3)cc2N(C)C1=O` (centres undefined), the RP-LC retention time stood at 1230 s.
Take `CCOC(=O)c1cc(OC)c(OC)cc1NC(=O)c1cc(OC)c(OC)c(OC)c1`: the RP-LC retention time came to 1030 s.
On to `CCc1cc(=O)n(CC(=O)Nc2ccccc2Cl)c(N2CCOCC2)n1`, for which the RP-LC retention time worked out at 830 s.
Turning to `Cc1ccc(C)c(S(=O)(=O)N2CCN(c3ccc(-n4nc(C)c(C)c4C)nn3)CC2)c1`, the RP-LC retention time came to 995 s.
Compound `O=C(C1=CN(c2cccc(C(F)(F)F)c2)c2cc(F)ccc2S1(=O)=O)N1CCOCC1` showed an RP-LC retention time of 858 s.
In turn, `COc1ccc(NC(=O)Cn2c(C)nc3c(sc4nc(-c5ccccc5)ccc43)c2=O)cc1Cl` returned an RP-LC retention time of 1090 s.
The figure for `COc1ccc(-c2nnc(-c3ccccc3Cl)o2)cc1S(=O)(=O)N1CCOCC1` is 871 s.
The figure for `COc1ccc(-c2noc(CN3C(=O)COc4ccc(Cl)cc43)n2)cc1OC` is 971 s; for `CCn1cc(CCNC(=O)c2cccnc2SC)c2cccnc21` it is 647 s; for `O=C(Cn1c(=O)c2cccn2c2ccc(F)cc21)N1CCCCCC1` it is 840 s.
The figure for `Cn1c(=O)c(=O)n(C)c2cc(N3CCCC3)c(NC(=O)Cc3ccccc3Cl)cc21` is 793 s.
As to `Cc1noc(C2CN(C(=O)Nc3ccc(C)c(Cl)c3)CC23CCOCC3)n1` (centres undefined), the RP-LC retention time was 816 s.
For the compound `COc1cc(NC(=O)Nc2nccn(-c3ccc(Cl)cc3)c2=O)cc(OC)c1`, the RP-LC retention time stood at 970 s.
On to `CCOC(=O)c1sc2nc(NC(=O)Cc3ccccc3)sc2c1C`, for which the RP-LC retention time amounted to 1020 s.
Take `Cn1c(=O)n(C)c2cc(N3CCOCC3)c(NC(=O)Cc3ccccc3)cc21`: the RP-LC retention time stood at 752 s.
For the compound `CCOc1ccc2nc(Nc3ncc4c(n3)CC(c3ccc(OC)cc3)CC4=O)nc(C)c2c1` (centres undefined), the RP-LC retention time turned out to be 809 s.
Compound `O=C(c1cc2ccccc2[nH]1)N1CCC2(CC1)N=C(c1ccc(Br)cc1)NO2` gave an RP-LC retention time of 959 s.
With `O=C(Nc1cc(-c2cccnc2)no1)c1ccc2c(c1)OCO2`, the RP-LC retention time stood at 710 s.
In the case of `CCn1cc(C(=O)NCc2ccccc2C)c2cccnc21`, the RP-LC retention time was determined as 809 s.
In the case of `COc1ccc(N2CCN(C(=O)c3ccc(=O)n(CCN4CCOCC4)c3)CC2)cc1`, the RP-LC retention time amounted to 578 s.
`Cc1sc(NC(=O)Cc2nn(C)c(=O)c3ccccc23)nc1-c1ccc(Cl)cc1` showed an RP-LC retention time of 982 s.
The compound `Cc1cc(N2CCCCC2)nc(N2CCN(C(=O)c3ccc(-c4ccccc4)cc3)CC2)n1` registered an RP-LC retention time of 837 s.
The value for `O=C(NCc1ccccc1Cl)C1CCN(c2cnc3nccnc3c2)CC1` was 769 s; that for `Cc1nnc2c(NC(=O)c3cnccn3)cccn12` was 600 s.
Turning to `COc1ccc(-c2noc(C3CCCN3C(=O)Nc3ccc(F)c(Cl)c3)n2)cc1` (centres undefined), the RP-LC retention time worked out at 1030 s.
`COc1cccc(-c2noc(C3CCCN3C(=O)c3ccoc3)n2)c1` (centres undefined) displayed an RP-LC retention time of 854 s.
`Cc1ccc(CN2C[C@@H]3C(=O)N(CCCN4CCCC4=O)C(=O)[C@@H]3C2)cc1` returned an RP-LC retention time of 589 s.
`COc1ccc(NC(=O)Cn2c(=O)n(-c3ccccc3)c(=O)c3c2cc(C)n3C)c(OC)c1`: the RP-LC retention time was 791 s.
`COc1ccc(OC)c(S(=O)(=O)N2CCc3nc[nH]c3C2)c1` had an RP-LC retention time of 554 s.
